{"source": "patent US10137181B2", "about": "“Isolated donor MHC-derived peptide and uses thereof” (INSERM (INSTITUT NATIONAL DE LA SANTÉ ET DE LA RECHERCHE …, priority 2014, dated 2018)", "key": {"[1]": {"system": "CD8^+CD40Ig Tregs", "assay": "MLR coculture assay: CD8+CD40Ig Treg activation (CD25 expression) by donor MHC-derived peptides in the presence of syngeneic pDCs", "type": "cell-based, rat", "conditions": "6 days culture, CpG-matured syngeneic pDCs; for activation of CD8+CD40Ig Tregs (CD25 upregulation), in words: individual peptide, derivatives compared with Bu31", "text": "FIG. 1: Analysis of CD8+CD45RClow Tregs activation in response to donor-derived peptide stimulation. (A) CD8+ Tregs were cocultured for 6 days with syngeneic CpG-matured pDCs in the presence of peptides. For each experiment, the percentage of CD25 positive Tregs after 6 days of coculture with pDCs only, was given the value 1. Mean value 1 is equal to 32.85±1.98%. Results are expressed as the ratio±SEM between the percentage of CD25 positive cells after peptide stimulation and percentage of CD25 positive cells in the control condition without peptide. *p<0.05, **p<0.01 and ***p<0.001 versus control condition (value 1.0). n=4 to 18 for each peptide. (B) Analysis of Treg activation in response to Bu31 shorter peptide derivatives. On the left, 15 Bu31-derivatives are detailed and classified by aa sequence length, from 9 aa to 15 aa. The box highlights mismatched aa between the donor and recipient. On the right, Treg activation in response to Bu31-derivatives was analyzed by CD25 expression. CD8+ Tregs were cocultured for 6 days with syngeneic CpG-matured pDCs in the presence of each peptide. Bars represent the ratio between the percentage of CD25 positive cells after peptide stimulation and percentage of CD25 positive cells in the control condition without peptide. *p<0.05, **p<0.01 versus Bu31 condition. n=3 to 14 for each peptide.\n(§1) Mixed lymphocyte reaction: For MLR coculture assays, pDCs from LEW.1A naive rats (1.25×10^4 cells), syngeneic CD8^+CD40Ig Tregs (5×10^4 cells) and 120 μg/ml of allogeneic peptides were plated in triplicate in 200 μl of complete RPMI-1640 medium in round-bottom 96 wells plates for 6 days at 37° C., 5% CO2. pDCs were matured with 0.5 μM of CpG ODN 1826.\n(§2) Proliferation of CFSE-labeled naive CD4^+CD25^− T cells and phenotype of CD8^+CD45RC^low Tregs were analyzed by flow cytometry on a FACSCanto II cytometer (BD Biosciences) after gating on TCR^+CD4^+ cells or TCR^+CD8^+ cells among live cells (DAPI negative).\n(§3) Extracellular and intracellular staining: For extracellular staining, cells were stained with the following mAbs: anti-TCRαβ (R73, Alexa Fluor 647-conjugated), anti-CD8α (OX8, PE-Cy7-conjugated, Ebiosciences), anti-CD4 (W3.25, PE-Cy7-conjugated), anti-CD45RC (OX22, FITC-conjugated), anti-CD28 (JJ319, biotin-labeled), anti-CD71 (OX26, biotin-labeled), anti-CD25 (OX39, biotin-labeled) and anti-MHC-II (OX6, biotin-labeled).\nIn the rat MHC-mismatched heart allograft model, donors (RT1^u) and recipients (RT1^a) are mismatched for all MHC molecules. We therefore aligned donor and recipient MHC I and II amino acids (aa) sequences and designed 82 overlapping 16-mer peptides matching the polymorphic domains of donor MHC I and II molecules (4-6). Peptides were first grouped into pools of 6 to 8 peptides (30 μg/ml of each peptide) and tested in an in vitro assay where immature or mature syngeneic recipient plasmacytoic dendritic cells (pDCs) and sorted-CD8^+CD40Ig Tregs from CD40Ig-treated long-term allograft bearing recipients were cocultured for 3 or 6 days. With immature pDCs, we observed no significant activation of CD8^+CD40Ig Tregs at day 3 or day 6 with any of the allogeneic pools of peptides. After stimulation with mature pDCs and pools of allogeneic peptides we observed at day 3 a slight upregulation of CD25 expression of a small population of CD8^+CD40Ig Tregs, and at day 6, a significant up-regulation of CD25 expression following allogeneic stimulation."}, "[2]": {"system": "CD4^+CD25^− T cells", "assay": "MLR suppressive assay with peptide-stimulated CD8+CD40Ig Tregs", "type": "cell-based, rat", "conditions": "day 6, donor LEW.1W pDCs, 1:1 effector:suppressor, vs Tregs stimulated by a non-activating peptide", "description": "FIG. 3: Bu31-activated Tregs maintained efficient suppressive activity. Fresh CD8+CD40Ig Tregs and syngeneic CpG-matured pDCs were cocultured for 6 days with either Bu31 or a control peptide. At day 6, Tregs were isolated by cell sorting (TCR+) and their regulatory function was analyzed by measuring their capacity to suppress MLR assay. The relative proportion of naive CFSE-labeled dividing LEW.1A CD4+CD25− T cells after stimulation with donor LEW.1W pDCs was analyzed at day 6 of culture, in the absence or presence of 6 days peptide-stimulated CD8+ Tregs at a 1:1 ratio effector:suppressor. Graphs represent the mean±SEM. *p<0.05 (left). Plots are representative of four independent experiments (right). […]\nas §2\nHere, we investigated whether Bu31-stimulated CD8^+CD40Ig Tregs could efficiently suppress effector T cell proliferation after 6 days coculture and thus maintained their suppressor activity, compared to CD8^+CD40Ig Tregs stimulated with a non-activating control peptide. […] To evaluate this, we measured the relative proportion of dividing CD4^+CD25^− T cells at day 6 of coculture (FIG. 3)."}, "[3]": {"system": "CD4^+CD25^− T cells", "assay": "In vitro suppressive potential of CD8+CD45RClow Tregs from peptide-treated recipients", "type": "cell-based, rat", "conditions": "6 days culture, donor LEW.1W pDCs, different effector:suppressor ratios", "description": "FIG. 7. In vitro suppressive potential of CD8^+CD45RC^low Tregs from Bu31-treated recipients. The proliferation of naive CFSE-labeled LEW.1A CD4^+CD25^− T cells stimulated with donor LEW.1W pDCs was analyzed after 6 days of culture, in the presence of LEW.1A CD8^+CD45RC^low Tregs from naive or Bu31-treated recipients at different effector:suppressor ratio. The CD4^+CD25^− T cell proliferation alone was ˜80% and was given the value 100 in each experiment. Graphs represent the mean±SEM of relative CD4^+CD25^− T cell proliferation. *p<0.05.\nFor MLR suppressive assays, sorted CFSE-labeled CD4^+CD25^− T cells from LEW.1A origin (5×10^4 cells) and allogeneic pDCs isolated from donor LEW.1W animals (1.25×10^4 cells) were plated in triplicate for 6 days in a final volume of 200 μl of completed RPMI-1640 medium in round-bottom 96 wells plates with FACS-sorted freshly purified naive CD8^+CD45RC^low Treg cells or peptide-expanded CD8^+CD40Ig Treg cells (5×10^4 cells).\nas §2"}, "[4]": {"system": "donor splenocytes", "assay": "Donor specific alloantibody detection", "type": "in vivo, rat", "conditions": "long-term surviving treated recipients vs untreated rats, sera >120 days after transplantation", "description": "FIG. 6: Anti-donor immune responses. Allo antibody production was evaluated in naive (n=3), grafted untreated (n=3) and long-term […] (n=4) animals. Sera were collected <30 days after rejection or >120 days after transplantation. Sera were incubated with donor splenocytes and analyzed by flow cytometry for IgG, IgG1 or IgG2b Abs production. Graph represents MFI±SEM.\nDonor specific alloantibody detection: Alloantibodies were analyzed by cytofluorimetry as described elsewhere (14). Briefly, after digestion by collagenase D and red blood cell lysis, allogeneic spleen cells were incubated with diluted (⅛) heat-inactivated serum, and then with FITC-conjugated goat anti-rat IgG antibodies (H+L chain specific) (Jackson Laboratories), a mouse anti-rat IgG1 MAb (MCA 194, Serotec) or IgG2b (MCA 195, Serotec). […] Cells were analyzed using a FACS Canto II cytofluorimeter (BD Biosciences, Mountain View, Calif.) and the results were expressed as mean channel fluorescence for each serum."}, "[5]": {"system": "CD8^+CD40Ig Tregs", "assay": "Cytokine ELISA in Treg/pDC coculture supernatants after peptide stimulation", "type": "cell-based, rat", "conditions": "6 days peptide stimulation with pDCs", "description": "(§4) FIG. 2: CD8+ Tregs phenotype following ex vivo allopeptide stimulation. (A) Tregs and syngeneic CpG-matured pDCs were cultured for 6 days, alone, with a control peptide or with peptide Bu31. Expression of indicated markers was analyzed on CD8+ Tregs in the culture supernatant by ELISA (A) or by flow cytometry (B) after in vitro stimulation. Graphs represent the mean±SEM. *p<0.05, **p<0.01, n=4 to 7.\nas §1\nCytokine assays: IFNγ, IL-10 were measured in coculture supernatants using ELISA from BD Biosciences OptEIA, IL-12 and TGFβ using ELISA from Invitrogen and R&D System respectively."}, "[6]": {"system": "cardiac grafts", "assay": "Morphometric analysis of cardiac grafts (chronic rejection)", "type": "in vivo, rat", "conditions": "long-term surviving peptide-treated recipients", "description": "Morphometric analysis of cardiac grafts: The upper third of the graft was fixed in paraformaldehyde and embedded in paraffin. Five μm coronal sections were stained with hematoxylin-eosine-safron. Tissues were analyzed by a pathologist blinded to the groups and chronic rejection was evaluated as previously described (16)."}, "[7]": {"system": "CD8^+CD40Ig Tregs", "assay": "Flow cytometry phenotype of CD8+ Tregs after ex vivo peptide stimulation", "type": "cell-based, rat", "conditions": "6 days of peptide stimulation", "description": "as §4, §1, §3\nFor intracellular staining, cells were then stained for Foxp3 (biotin-labeled, Ebiosciences) using BD cytofix/cytoperm kit (BD Biosciences) according to the manufacturer's instructions.\nAll biotinylated mAbs were visualized using Streptavidin-PerCP.Cy5.5 (BD Biosciences). A FACSCanto II cytofluorimeter (BD Biosciences) was used to measure fluorescence, and data were analyzed using FlowJo software (Tree Star, Inc. USA, version 7.6.5). Cells were first gated by their morphology and dead cells excluded by selecting DAPI negative viable cells."}, "[8]": {"system": "heart allograft, LEW.1W donors into LEW.1A recipients", "assay": "Cardiac allograft survival after in vivo peptide infusion", "experimental": "Recipients were either untreated (n=9) or treated with continuous infusion of peptide by i.p mini osmotic pumps (ALZET), delivering from day-7 and for 28 days, either 20.83 μg/hour alone (Bu31 0.5 mg/day: n=6) or 40.66 μg/hour in the LEW.1W/LEW.1A (Du51 1 mg/day: n=5) or combined with a depleting anti-CD8 mAb (OX8) (n=2) or BN/LEW.1A (Du51 1 mg/day (BN/1A): n=4) strains combination.\nAnimals and cardiac transplantation models: Allotransplantations of heart were performed between whole MHC incompatible LEW.1W (RT1.A^u as donors) and LEW.1A (RT1.A^a as recipients) male rats as previously described (1).\nPeptides treatment in vivo: 16-mer peptides were dissolved in 0.4% DMSO/PBS before injection. […] In the second protocol, mini osmotic pumps (ALZET, Cupertino, Calif., USA) were implanted intraperitoneally (i.p) in recipients and delivered continuously either 20.83 or 41.66 μg/hour of 16-mer peptides for 14 days. A first pump was implanted on day −7 before transplantation and was replaced by a second one at day +7, allowing delivery of 14 or 28 mg of peptide per animal for 28 consecutive days. A depleting anti-CD8α mAb (OX8, IgG1, 3 mg/kg) was injected i.p. twice a week from day −7 until rejection. Allografts were monitored daily by palpation and allograft rejection was defined as complete cessation of palpable heart beat."}}}
{"sequence": "SDVGEYRAVTELGR (Synthetic 14-mer peptide 31-14)", "values": [{"measurement": "activation of CD8+CD40Ig Tregs (CD25 upregulation), in words", "setting": "[1]", "value": "much stronger and significant CD25 upregulation"}]}
{"sequence": "YLRYDSDVGEYRAVTE (Synthetic Subdominant peptide Bu31)", "values": [{"measurement": "suppressive activity of peptide-stimulated Tregs: relative proportion of dividing CD4+CD25− effector T cells", "setting": "[2]", "value": "maintained an efficient suppressive activity"}, {"measurement": "ex vivo suppressive activity of CD8+CD45RClow Tregs from treated recipients on effector CD4+ T cell proliferation", "setting": "[3]", "value": "superior suppressive activity"}, {"measurement": "IgG1 alloantibodies production", "setting": "[4]", "value": "total inhibition"}, {"measurement": "IgG2b alloantibodies production", "setting": "[4]", "value": "total inhibition"}, {"measurement": "total IgG alloantibodies production", "setting": "[4]", "value": "total inhibition"}, {"measurement": "IFNγ expression in culture supernatant", "setting": "[5]", "value": "significant increased expression"}, {"measurement": "IL-10 expression in culture supernatant", "setting": "[5]", "value": "no modification"}, {"measurement": "IL-12 expression in culture supernatant", "setting": "[5]", "value": "no modification"}, {"measurement": "TGFβ expression in culture supernatant", "setting": "[5]", "value": "no modification"}, {"measurement": "upregulation of CD25 expression at the cell surface of CD8+CD40Ig Tregs, ratio of % CD25 positive cells vs. no peptide", "setting": "[1]; individual 16-mer peptide, mean±SEM", "value": "1.67±0.09", "unit": "fold"}, {"measurement": "signs of chronic rejection, anatomopathologic analysis of the graft", "setting": "[6]", "value": "no signs of chronic rejection"}, {"measurement": "CD28 expression on CD8+ Tregs", "setting": "[7]", "value": "upregulation"}, {"measurement": "CD71 expression on CD8+ Tregs", "setting": "[7]", "value": "upregulation"}, {"measurement": "Foxp3 expression in CD8+ Tregs", "setting": "[7]", "value": "no modification"}, {"measurement": "MHC class II expression on CD8+ Tregs", "setting": "[7]", "value": "upregulation"}, {"measurement": "prolongation of allograft survival", "setting": "[8]; 0.5 mg/day i.p. mini-osmotic pumps for 28 days from day -7, monotherapy", "value": "not sufficient to induce prolongation of allograft survival"}, {"measurement": "indefinite allograft survival, share of recipients", "setting": "[8]; 1 mg/day i.p. mini-osmotic pumps for 28 days from day -7, LEW.1W/LEW.1A", "value": 80, "unit": "%"}, {"measurement": "rejection of Brown Norway (BN) third party grafts, time after transplantation", "setting": "[8]; peptide infusion 1 mg/day, BN/LEW.1A combination", "value": 7, "unit": "days"}]}
{"sequence": "YLRYDSDVGEYR (Synthetic 12-mer peptide 31-10)", "values": [{"measurement": "activation of CD8+CD40Ig Tregs (CD25 upregulation), in words", "setting": "[1]", "value": "much stronger and significant CD25 upregulation"}]}
{"sequence": "LRYDSDVGEYRAVTE (Synthetic 15-mer peptide 31-15)", "values": [{"measurement": "activation of CD8+CD40Ig Tregs (CD25 upregulation), in words", "setting": "[1]", "value": "much stronger and significant CD25 upregulation"}]}
{"sequence": "YLRYDSDVGEYRAV (Synthetic 14-mer peptide 31-13)", "values": [{"measurement": "activation of CD8+CD40Ig Tregs (CD25 upregulation), in words", "setting": "[1]", "value": "much stronger and significant CD25 upregulation"}]}
